In patent US20150290240A1 (Fred Hulchinson Cancer Research Center, priority 2012, published 2015):

Columns and labels:
[1] = tested on: neutrophils in the myocardium; experiment: Neutrophil count in heart sections following the heart attack procedure; assay type: in vivo, mice; settings: vs saline treated animals
Protocol: (§1) For the myocardial infarction model, open chest ligation of the left descending coronary artery (LAD ligation) was performed in mice. At 55 minutes post initiation of ischemia, either vehicle or test agent was injected into the femoral vein of each mouse. The heart muscle was reperfused by releasing the ligature at 60 minutes post initiation of ischemia. Mice were then sacrificed at either 2 hours or 2 days post reperfusion for infarct size measurement and blood analysis or heart function assays, respectively, as described below.
In order to determine whether NaHSe decreased inflammation in the hearts of animals following the heart attack procedure, neutrophils were counted in sections of hearts of saline and NaHSe treated animals.

[2] = Oxidation of selenide solutions in water or glutathione, observed visually; assay type: physicochemical; settings: 50 mM selenide in 150 mM GSH vs in water; 8 minutes immediately following preparation
[3] = tested on: cardiac troponin I; experiment: Plasma cardiac troponin I by ELISA after LAD ligation and 2 hour reperfusion; assay type: in vivo, mice; settings: end of 2 hour reperfusion
Protocol: as §1
To provide an independent means of testing for improvement, the level of a heart specific protein, cardiac troponin I, was assessed in the blood of the animals after the 2 hour reperfusion period. Five minutes prior to reperfusion, three groups of mice were given 200 μg/kg NaHSe, 50 μg/kg NaHSe, or saline by I.V. injection through the femoral vein. At the end of the 2 hour reperfusion, blood was collected and plasma cardiac troponin I was measured by ELISA.

[4] = tested on: glutathione peroxidase 2 (GPX-2); experiment: Antibody staining of heart sections for glutathione peroxidase 2; assay type: in vivo, mice; settings: 800 μg/kg; compared to saline and sham (no heart attack) animals
Protocol: as §1
Therefore, the hypothesis that the therapeutic value of sodium selenide is its accumulation in cardiomycytes during reperfusion for the synthesis of selenoproteins, such as glutathione peroxidase, was tested. Heart sections from animals that were saline treated or NaHSe (800 μg/kg) treated were stained with an antibody specific for the selenoprotein glutathione peroxidase 2 (GPX-2).

[5] = tested on: mouse model of heart attack (myocardial ischemia and reperfusion); experiment: Infarct size by morphometry (TTC and Evans blue) after LAD ligation and 2 hours of reperfusion; assay type: in vivo, mice
Protocol: as §1
In order to examine the effect of NaHSe on myocardial infarct size, mice were subjected to LAD ligation, and after 2 hours of reperfusion, infarct size was measured by morphometry (FIG. 1). Six groups of mice were utilized in this study, including a saline vehicle group and five test groups that received 50, 200, 800, 1600 and 2400 μg/kg of NaHSe. To be certain that all animals in the study were treated in a similar way, the area at risk (AAR) as a proportion of the left ventricle was determined (FIG. 1, left panel).
Area at risk and infarct size (Inf) were measured using the specific dyes TTC and Evans blue. Processed images were generated in an unbiased way by setting constant thresholds and allowing Photoshop® to generate the images that were quantitated to generate FIG. 1.

[6] = tested on: mouse model of heart attack (heart function); experiment: Echocardiography 2 days post the heart attack procedure; assay type: in vivo, mice; settings: 800 μg/kg; 48 hours of reperfusion after 60 min LAD ligation; vs saline
Protocol: as §1
To further test the hypothesis that NaHSe improves outcome following myocardial infarction, mice were survived for 2 days post the heart attack procedure and then subjected to echocardiography.

For [SeH2] [NaHSe], the “accumulation of neutrophils in the myocardium” value [1] was “significantly reduced”, the “oxidation of selenide (dark oxidized forms in solution)” value [2] was “reduced levels of oxidation” and the “plasma cardiac troponin I compared to saline control” value ([3]; 50 μg/kg I.V. 5 min prior to reperfusion) was “statistically significant decrease”. For the same compound, the “plasma cardiac troponin I compared to saline control” value ([3]; 200 μg/kg I.V. 5 min prior to reperfusion) was “statistically significant decrease”, the “GPX-2 antibody staining of heart sections” value [4] was “striking increase” and the “benefit relative to infarct size vs saline” value ([5]; 800 μg/kg (0.8 mg/kg) at reperfusion, selenide vs selenite comparison (FIG. 6)) was “provided benefit”. The “reduction in infarct size in comparison to vehicle alone” value ([5]; 800 μg/kg I.V. femoral vein 5 min prior to reperfusion, 60 min LAD ligation, 2 hours reperfusion) was 88%, the “infarct size vs saline group” value ([5]; 50, 200, 800, 1600 and 2400 μg/kg I.V. 5 min prior to reperfusion, 2 hours reperfusion) was “statistically significant dose dependent decreases” and the fractional shortening [6] was “statistically significant improvement”. For the same compound, the “left ventricular ejection fraction” value [6] was “statistically significant improvement”.
